These are literature values, as cited in patent publication US20050142225A1, “Stabilised pharmaceutical compositions on the basis of polyoxyethlated castor oil and method for manufacturing the same” (Pliva-Lachema A.S., priority 2003, published 2005).

Like-named read-outs stand apart in the source and are kept apart here.

Take `CC(=O)O[C@H]1C(=O)[C@@]2(C)[C@H]([C@H](OC(=O)c3ccccc3)[C@]3(O)C[C@H](OC(=O)[C@H](O)[C@@H](NC(=O)c4ccccc4)c4ccccc4)C(C)=C1C3(C)C)[C@]1(OC(C)=O)CO[C@@H]1C[C@@H]2O` [taxol, paclitaxel]: the content of taxol reads like this: (composition with Cremophor EL, without an acid (pH of 9.1), after 7 days at 40° C.) 86,7%; (composition with pH adjusted by acetic acid to 6.7, after 7 days) 97,5%; (composition with pH adjusted by citric acid to 6.2, after 7 days) 96,6%.
